Consider eight compounds from ChEMBL document CHEMBL3046141, “Partition coefficient determination of a series of isoindolines-2-substituted and its correlation with their antiproliferative activity on HeLa cells” (Med Chem Res, 2013).

For data set [1], the system named is HeLa. Description: Cytotoxicity against Homo sapiens (human) HeLa cells assessed as metabolic active cells after 24 hr by MTT assay. Format: functional, cell-based. In general terms: Tetrazolium dyes change colour on reduction, which living cells bring about.
The test system of data set [2] is HeLa. Description: Cytotoxicity against Homo sapiens (human) HeLa cells assessed as cell viability after 24 hr by crystal violet staining. Format: functional, cell-based.
Data set [3] is described as follows: n-octanol-water partition coefficient, log P of the compound by shake-flask method. The format is physicochemical.

One may read the IC50 as the midpoint of a concentration-inhibition curve. As usually defined, the logP is the decadic logarithm of the partition coefficient of the neutral form, usually between octanol and water. A lower logP goes with a more hydrophilic compound. For `COC(=O)CN1Cc2ccccc2C1`, the values for the IC50 in the data set with HeLa [1] and in the data set with HeLa [2] were 8.23 mM and 3.65 mM, respectively. The same compound gave a logP in data set [3] of -0.027.

As for `COC(=O)[C@H](CC(C)C)N1Cc2ccccc2C1`, the results for the IC50 with HeLa [1] and in the data set with HeLa [2] were 2.56 mM and 3.16 mM, respectively. Further, in data set [3], the lipophilicity (logP) came out at 0.065.

Turning to `COC(=O)[C@H](c1ccccc1)N1Cc2ccccc2C1`, the IC50 in the data set with HeLa [1] was found to be 8.25 mM; in the data set on HeLa [2], 5.32 mM. In data set [3], this compound registered a logP of 1.35.

Consider `COC(=O)[C@H](Cc1c[nH]c2ccccc12)N1Cc2ccccc2C1`, for which the IC50 came to 9.71 mM in the data set with HeLa [1] and 8.44 mM in the data set with HeLa [2]. The log partition coefficient (logP) in data set [3] was 1.45.

Consider `O=C(O)CN1Cc2ccccc2C1`, for which the IC50 with HeLa [1] came out at 8.74 mM; in the data set on HeLa [2] it was 5.62 mM. In data set [3], this compound had a logP of -0.229.

As for `CC(C)C[C@@H](C(=O)O)N1Cc2ccccc2C1`, the values for the IC50 with HeLa [1] and with HeLa [2] were 4.56 mM and 4.3 mM, respectively. Also, the logP in data set [3] stood at 0.114.

Take `O=C(O)[C@H](c1ccccc1)N1Cc2ccccc2C1`: the IC50 in the data set on HeLa [1] is 9.48 mM; with HeLa [2] it was 7.07 mM. The compound also returned a lipophilicity (logP) in data set [3] of -0.31.

With `O=C(O)[C@H](Cc1c[nH]c2ccccc12)N1Cc2ccccc2C1`, the IC50 in the data set on HeLa [1] was 7.6 mM; in the data set with HeLa [2], 8.82 mM. For the same compound, the logP in data set [3] was determined as 0.347.
